These results are taken from ChEMBL document CHEMBL1201862, “PubChem BioAssay data set” (2004).

Test systems include UACC-62; RXF 393; U-251; HCT-15; OVCAR-3; TK-10; HOP-92; KM12; EKVX; SK-MEL-28; SK-MEL-2; SF-539; COLO 205; UACC-257; NCI-H226; HCT-116; LOX IMVI.
What all share (assay): NCI tumour cell line growth inhibition, 48 h

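Results reflect a 48-hour exposure of cells in 96-well plates to compound at five concentrations. GI50 marks 50% less growth.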 The source made the active and inactive calls. No stated cut-off is given here; in the data, active = GI50 up to about 1.1 µM and inactive = higher.

Regarding `O=C(/C=C/c1cccc2ccccc12)c1ccccc1Cl`, the GI50 in the test on UACC-62 is 14.1 µM (inactive); in the test with RXF 393 it was 16.7 µM (inactive); in the test on U-251 it was 11.6 µM (inactive); in the test with HCT-15, 6.53 µM; in the test with OVCAR-3, 12.9 µM (inactive); in the test with TK-10, 14.6 µM (inactive). In addition, the GI50 in the test with HOP-92 was 13 µM (inactive); with KM12, 8.63 µM (inactive); in the test with EKVX, 15.1 µM (inactive); in the test with SK-MEL-28, 19.1 µM (inactive); in the test on SK-MEL-2, 19.3 µM (inactive); in the test on SF-539, 17.5 µM (inactive). Moreover, the GI50 with COLO 205 is > 100 µM (inactive); with UACC-257, 17.4 µM (inactive); with NCI-H226, > 100 µM (inactive); in the test on HCT-116 it was 8.95 µM (inactive).
Consider `Cn1c2c(c3ccccc31)CCN(CCN1CCN(c3ccccc3)CC1)C2=O`, for which the GI50 in the test with UACC-62 is > 100 µM (inactive); with LOX IMVI, > 100 µM (inactive); in the test with RXF 393, 26.7 µM (inactive); with U-251 it was > 100 µM (inactive); in the test with HCT-15 it was greater than 100 µM; in the test on TK-10 it was > 100 µM (inactive). In addition, the GI50 was 31.2 µM (inactive) in the test on HOP-92; > 100 µM (inactive) with EKVX; > 100 µM (inactive) with SK-MEL-28; 41.3 µM (inactive) in the test with SF-539; > 100 µM (inactive) in the test with COLO 205; 58.1 µM (inactive) in the test on HCT-116.
As for `Cc1ccc(NC(=O)CC(=O)n2nc(-c3ccccc3)c(/N=N/c3ccccc3Cl)c2-c2ccccc2)cc1`, the GI50 is 45.4 µM (inactive) in the test with UACC-62; 92.5 µM (inactive) with LOX IMVI; 60.8 µM (inactive) in the test on U-251; greater than 10 µM with HCT-15; > 10 µM (inactive) in the test on OVCAR-3; 83.9 µM (inactive) in the test with TK-10. For the same molecule, the GI50 was 23.6 µM (inactive) in the test with HOP-92; > 10 µM (inactive) in the test with KM12; 88.9 µM (inactive) in the test on EKVX; 62.2 µM (inactive) in the test with SK-MEL-28; > 10 µM (inactive) in the test with SK-MEL-2; 76.6 µM (inactive) in the test with SF-539. Besides, the GI50 with COLO 205 was > 10 µM (inactive); in the test with UACC-257, > 10 µM (inactive); with NCI-H226, > 10 µM (inactive); in the test with HCT-116, 39.5 µM (inactive).
Turning to `O=C(CCc1nnc(S)[nH]1)Nc1ccc(Cl)c(Cl)c1`, the GI50 in the test on UACC-62 is 2.98 µM (inactive); with U-251 it was 99.5 µM (inactive); in the test with HCT-15, 6.25 µM; with OVCAR-3 it was 40.6 µM (inactive); in the test with TK-10, 79.4 µM (inactive); with HOP-92 it was 53.2 µM (inactive). Further, the GI50 in the test on KM12 was 21.9 µM (inactive); in the test on EKVX, > 100 µM (inactive); in the test on SK-MEL-28, 71.6 µM (inactive); in the test with SK-MEL-2, 6.18 µM (inactive); in the test with SF-539, 62.5 µM (inactive); in the test with COLO 205, > 100 µM (inactive). Also, the results for the GI50 with UACC-257, with NCI-H226 and in the test on HCT-116 were 34.8 µM (inactive), > 100 µM (inactive) and 47 µM (inactive), respectively.
`C=CC(=O)NCNC(=O)C=C`: the GI50 in the test with UACC-62 is > 100 µM (inactive); in the test on LOX IMVI, > 100 µM (inactive); in the test on U-251, > 100 µM (inactive); with HCT-15 it was greater than 100 µM; in the test on OVCAR-3 it was > 100 µM (inactive); with TK-10 it was > 100 µM (inactive). The GI50 in the test with HOP-92, with KM12, in the test on EKVX, in the test on SK-MEL-28, with SK-MEL-2 and in the test with SF-539 was > 100 µM (inactive) in each case. The GI50 in the test with COLO 205, in the test on UACC-257, with NCI-H226 and in the test with HCT-116 was > 100 µM (inactive) throughout.
Regarding `CCOC(=O)C1=C(C(=O)OCC)C2(c3ccccc3)N(O1)c1ccccc1C2(C)C` (stereo not drawn), the GI50 was 36.5 µM (inactive) in the test with UACC-62; 46 µM (inactive) in the test on RXF 393; 34 µM (inactive) in the test with U-251; 46.9 µM (inactive) in the test on OVCAR-3; > 100 µM (inactive) with TK-10; 58.1 µM (inactive) in the test on KM12. Moreover, the GI50 in the test on EKVX is 45.4 µM (inactive); with SK-MEL-28, 44.6 µM (inactive); in the test on SK-MEL-2, 30.9 µM (inactive); in the test with SF-539, 43.5 µM (inactive); in the test with COLO 205, 51.5 µM (inactive); with UACC-257 it was 39.2 µM (inactive). Besides, the GI50 with NCI-H226 and in the test with HCT-116 was 32.4 µM (inactive) each time.
On to `NS(=O)(=O)c1ccc(NC(=O)CC(=O)Nc2ccc(S(N)(=O)=O)cc2)cc1`, for which the GI50 was > 100 µM (inactive) with UACC-62; > 100 µM (inactive) with LOX IMVI; > 100 µM (inactive) with U-251; greater than 100 µM in the test with HCT-15; > 100 µM (inactive) with OVCAR-3; > 100 µM (inactive) with TK-10. Also, the GI50 in the test on HOP-92, in the test on EKVX, with SK-MEL-28, with SK-MEL-2, in the test on SF-539 and in the test on COLO 205 was > 100 µM (inactive) in each case. Further, the GI50 in the test with UACC-257, in the test with NCI-H226 and in the test with HCT-116 was > 100 µM (inactive) each time.
As for `CCOC(=O)C(Cc1ccccc1)NC(=O)OC(C)(C)C` (stereo not drawn), the GI50 in the test on UACC-62 was > 100 µM (inactive); with LOX IMVI it was > 100 µM (inactive); with U-251, > 100 µM (inactive); in the test on HCT-15 it was greater than 100 µM; in the test with OVCAR-3, > 100 µM (inactive); with TK-10, > 100 µM (inactive). Besides, the GI50 with HOP-92, with KM12, with SK-MEL-28, in the test with SK-MEL-2, with SF-539 and with COLO 205 was > 100 µM (inactive) each time. Also, the GI50 in the test on UACC-257 and in the test on HCT-116 was > 100 µM (inactive) each time.
For the molecule `NC(=O)c1csc(C2CCC(CO)O2)n1` (stereo not drawn), the GI50 in the test with UACC-62 is > 100 µM (inactive); in the test on LOX IMVI, > 100 µM (inactive); in the test on U-251, > 100 µM (inactive); in the test with HCT-15, greater than 100 µM; with OVCAR-3, > 100 µM (inactive); in the test with TK-10, > 100 µM (inactive). In addition, the GI50 in the test with HOP-92, in the test on KM12, with EKVX, with SK-MEL-28, in the test with SK-MEL-2 and in the test on SF-539 was > 100 µM (inactive) each time. The GI50 in the test with COLO 205, with UACC-257, in the test on NCI-H226 and in the test with HCT-116 was > 100 µM (inactive) in each case.
With `CC[n+]1c(/C=C/c2ccc(N(CCCl)CCCl)cc2)ccc2cc(Br)ccc21`, the GI50 in the test with UACC-62 is 1.19 µM (inactive); in the test on LOX IMVI, 1.47 µM (inactive); with RXF 393, 1.31 µM (inactive); in the test on U-251 it was 1.31 µM (inactive); with HCT-15, 14.9 µM; in the test with OVCAR-3 it was 0.587 µM (active). Further, the GI50 with TK-10 is 4.48 µM (inactive); with HOP-92, 1.06 µM (active); with KM12, 1.68 µM (inactive); in the test on EKVX, 3.52 µM (inactive); with SK-MEL-28 it was 1.21 µM (inactive); in the test on SK-MEL-2, 0.382 µM (active). Also, the GI50 with SF-539 was 1.55 µM (inactive); with COLO 205, 69.7 µM (inactive); with UACC-257, 1.11 µM (active); in the test on NCI-H226 it was 1.82 µM (inactive); with HCT-116, 131 µM (inactive).
With `CCN(CC)CC(=O)Nc1ccc2c(c1)C(=O)c1ccc(NC(=O)CN(CC)CC)cc1C2=O`, the GI50 is 73.8 µM (inactive) with UACC-62; 14.7 µM (inactive) in the test with LOX IMVI; 3.22 µM (inactive) in the test with RXF 393; 21.6 µM (inactive) in the test on U-251; 36.4 µM in the test with HCT-15; 43 µM (inactive) with TK-10. Besides, the GI50 was 85.3 µM (inactive) in the test on HOP-92; 22.3 µM (inactive) in the test on KM12; 89.3 µM (inactive) with EKVX; 53.2 µM (inactive) with SK-MEL-28; > 100 µM (inactive) in the test with SK-MEL-2; 16.3 µM (inactive) with SF-539. For the same molecule, the GI50 is 15.2 µM (inactive) in the test with COLO 205, 31.8 µM (inactive) in the test on UACC-257 and 13.6 µM (inactive) in the test with HCT-116.
As to `Cc1ccc(NC(=O)c2cc3ccccc3c(/N=N\c3ccccc3O)c2O)c(C)c1`, the GI50 with RXF 393 was 3.67 µM (inactive); in the test on HCT-15, 0.614 µM; in the test on OVCAR-3, 0.37 µM (active); in the test on TK-10 it was 5.31 µM (inactive); in the test with HOP-92 it was 2.95 µM (inactive); in the test on KM12, 1.45 µM (inactive). The GI50 in the test on EKVX was 2.75 µM (inactive); in the test with SK-MEL-28, 5.09 µM (inactive); in the test with SK-MEL-2, 2.98 µM (inactive); in the test with COLO 205, 3.02 µM (inactive); in the test on UACC-257, 4.75 µM (inactive); in the test on NCI-H226 it was 2.82 µM (inactive). Further, the GI50 with HCT-116 is 0.664 µM (active).
`c1ccc(SC2CCSc3ccccc3C2Sc2ccccc2)cc1` (stereo not drawn): the GI50 is > 10 µM (inactive) in the test with UACC-62; > 100 µM (inactive) with LOX IMVI; > 100 µM (inactive) in the test with U-251; greater than 100 µM in the test with HCT-15; 37 µM (inactive) in the test with OVCAR-3; > 100 µM (inactive) in the test with TK-10. For the same molecule, the GI50 in the test on HOP-92 was 18.8 µM (inactive); in the test with KM12, 56.1 µM (inactive); in the test with EKVX it was > 100 µM (inactive); in the test on SF-539 it was > 100 µM (inactive); with COLO 205, > 10 µM (inactive); with UACC-257 it was 27.9 µM (inactive). Also, the GI50 with NCI-H226 is > 100 µM (inactive); in the test on HCT-116 it was 9.75 µM (inactive).
